Assay results: US11083197B2, “Herbicidal composition comprising chromone derivatives and a method for weed control” (INVESTIGACIONES BIOLÓGICAS EN AGROQUÍMICOS ROSARIO S.A., priority 2015, dated 2021)

Tests used:
cucumber cotyledon disks = experiment: Electrolyte leakage assay; assay type: cell-based; conditions: for destabilization of cell membranes, electrolyte leakage / electrolyte leakage versus boiled positive control: 100 and 300 μM; for electrolyte leakage versus boiled positive control: 16 h dark plus 26 h of high light intensity
Description: The effects of pure furanochromones, compounds of formulas III and IV (Sigma Aldrich), on membrane stability were studied as described by Dayan and Watson.^23 Cucumber cotyledon disks were exposed to each furanochromone at 100 and 300 μM. Control tissues were exposed to the same solvent as treated tissues but without the compounds. Conductivity measurements were carried out at the beginning of the dark incubation period, a second measurement was made after 16 h, at which time the samples were placed under high light intensity, and final measurements were made after 8 and 26 h of light exposure. Each experiment consisted of three replicates. Maximum conductivity was measured by boiling three samples of each treatment for 20 min. To study if electrolyte leakage caused by compounds of formulas III and IV was light-dependent, two sets of Petri plates were prepared with cucumber cotyledon disks exposed to test compounds and control in both. One set was treated as described before (dark 16 h/light 26 h) while the other one was kept in darkness for 42 h. Conductivity measurements were done at the indicated times.

[1] = system: green alga Chlamydomonas reinhardtii; conditions: equimolar concentrations and equal UV-A doses; cited from earlier work
[2] = system: crabgrass (D. sanguinalis), barnyardgrass (E. crus-galli) and velvetleaf (A. theophrasti); experiment: Greenhouse postemergence spray, 4.0 kg ai/ha; assay type: in vivo
Description: Aqueous solution containing commercial standard of pure compound of Formula IV was prepared and sprayed on crabgrass (D. sanguinalis), barnyardgrass (E. crus-galli) and velvetleaf (A. theophrasti). Plants were sprayed at 2-3 true leaf stage (13-16-day-old plants). For better dissolution of compounds in water AGRIDEX (1% v/v) and acetone (1% v/v) were added to spray solutions. Final rate of compounds was 4.0 kg ai ha^−1. Plant height and dry weight were measured at 11 days after spray. Results were compared with the bio herbicide pelargonic acid at 4.0 kg ai ha^−1.

Row | Structure (SMILES) | destabilization of cell membranes, electrolyte leakage (cucumber cotyledon disks) | electrolyte leakage versus boiled positive control (cucumber cotyledon disks) | phototoxicity and photomutagenicity compared with bergapten [1] | electrolyte leakage (cucumber cotyledon disks; 100 μM, after 8 h in the light) | kind of postemergence herbicidal activity [2] | height and biomass of sprayed weeds versus control plants ([2]; 11 days after spray) | symptoms on treated plants ([2]; 11 days after treatment)
1 | COc1c2occc2c(OC)c2c(=O)cc(C)oc12 [Formula III, 4,9-dimethoxy-7-methyl-5H-furo[3,2-g]chromen-5-one] | significant electrolyte leakage | comparable to the positive control |  |  |  |  | 
2 | COc1c2ccoc2cc2oc(C)cc(=O)c12 [Formula IV, 4-methoxy-7-methyl-5H-furo[3,2-g]chromen-5-one] | significant electrolyte leakage | comparable to the positive control | much less phototoxic and photomutagenic than bergapten | caused electrolyte leakage | by contact and non-selective | significantly smaller | necrotic lesions and some abnormally formed leaves
